Laboratory results reported in patent publication US20230181673A1, “TRI-PEPTIDES AND TREATMENT OF METABOLIC, CARDIOVASCULAR AND INFLAMMATORY DISORDERS” (Diapin Therapeutics, LLC, priority 2018, published 2023).
Non-standard residues stand in square brackets, D forms with d. No end group written: not given here.

Experiments:
[1] = Body weight, food intake and adiposity in apoE−/− mice fed Western diet; format: in vivo; details: apoE−/− mice on WD; for Total gain in body weight from baseline to endpoint, lower by: 12 weeks oral gavage, DT-109 1 mg/g; for Gross appearance of the peritoneal cavities at endpoint (yellowish coloration of the liver, enlarged visceral fat pads): glycine 0.67, leucine 0.33, DT-109/DT-110 1 mg/g; for Adipocyte hypertrophy in EAT and SAT: H&E histology (FIG. 15L)
From the text: All animal procedures were approved by the Institutional Animal Care & Use Committee of the University of Michigan (PRO00008239) and performed in accordance with the institutional guidelines. Eight-week-old male apolipoprotein E-deficient (apoE−/−) mice (B6.129P2-Apoetm1Unc/J, Stock No.: 002052) were obtained from Jackson Laboratories. Mice were fed Western diet (WD, 42% of calories from fat and 0.2% cholesterol by weight, Envigo TD.88137). After one week of WD feeding, blood was carefully collected from the facial vein to determine baseline plasma levels of total cholesterol (TC). […] All mice were maintained on a 12-hour light/dark cycle and had ad libitum access to food and water. Body weight and food intake were measured every one and three weeks, respectively
The experimental design is depicted in FIG. 1A. After one week of Western diet (WD) feeding to apoE−/− mice, blood was collected from the facial vein (FV) to determine baseline plasma levels of TC.
Animal procedures were approved (PRO00008239) by the Institutional Animal Care & Use Committee of the University of Michigan (U-M) and performed in accordance with the institutional guidelines. Seven weeks-old C57BL/6J or apoE−/− mice (B6.129P2-Apoetm1Unc/J, Stock:002052) were from Jackson Laboratories. AGXT1−/− mice on C57BL/6J background were generated using CRISPR/Cas9, with guide-RNA targeting exon 1 of AGXT1: 5′-[…]-3′.
Histological procedures were performed by technicians blinded to the experimental groups at the In Vivo Animal Core (IVAC) Histology Laboratory, University of Michigan. Formalin-fixed tissues were processed through graded alcohols and cleared with xylene followed by infiltration with molten paraffin using an automated VIP5 or VIP6 tissue processor (TissueTek, Sakura-Americas). Using a Histostar Embedding Station (ThermoFisher Scientific), tissues were then sectioned on a M355S rotary microtome (ThermoFisher Scientific) at 4 μm thickness and mounted on glass slides. Slides were stained for hematoxylin and eosin (H&E, ThermoFisher Scientific). For Sirius Red staining, slides were treated with 0.2 phosphomolybdic acid for 3 min and transferred to 0.1% Sirius Red saturated in picric acid (Rowley Biochemical Inc.) for 90 min, then transferred to 0.01N hydrochloric acid for 3 min.

[2] = test system: plasma lipids, adipokines and cytokines; experiment: Plasma lipids, adipokines and cytokines in WD-fed apoE−/− mice; format: in vivo; details: for Time-dependent increase in plasma TC (baseline to endpoint): 1 week WD baseline vs 12 weeks of treatment; for Endpoint plasma HDL / Endpoint plasma LDL, reduced by / Endpoint plasma TC, reduced by: 6 hour fast; for Endpoint plasma HDL / Endpoint plasma LDL, reduced by / Endpoint plasma TC, reduced by / Plasma levels of glycine-containing tripeptide molecule, lower by: vs WD+H2O; for Plasma levels of glycine-containing tripeptide molecule, lower by: 12 weeks, glycine 0.67, DT-109/DT-110 1 mg/g; for Plasma HDL (lipid profile): endpoint (FIG. 15I); for Plasma glycine-containing tripeptide molecule: endpoint (FIG. 15K)
From the text: (§1) Eight-week-old male apolipoprotein E-deficient (apoE−/−) mice (B6.129P2-Apoetm1Unc/J, Stock No.: 002052) were obtained from Jackson Laboratories. Mice were fed Western diet (WD, 42% of calories from fat and 0.2% cholesterol by weight, Envigo TD.88137). After one week of WD feeding, blood was carefully collected from the facial vein to determine baseline plasma levels of total cholesterol (TC). […] All mice were maintained on a 12-hour light/dark cycle and had ad libitum access to food and water. Body weight and food intake were measured every one and three weeks, respectively
Plasma levels of glycine tripeptide molecule, resistin, interleukin-6 (IL-6) and monocyte chemoattractant protein-1 (MCP1) were measured with a Luminex 200 chemistry analyzer (Luminex Corporation) at the Chemistry Laboratory of the MDRC using manufacturer-provided assay reagents and protocols (Millipore Multiplex, MMHMAG-44K). […]

diet-induced NASH = format: in vivo, mice; details: for NASH-diet-induced hepatomegaly and yellowish coloration: leucine 0.17, glycine 0.33, DT-109 0.125 or 0.5 mg/g/day
ABCG8 = experiment: Western blot of hepatic ABCG8 in WD-fed apoE−/− mice; format: in vivo; details: normalized to β-Actin
From the text: as §1
The following primary antibodies were used: rabbit polyclonal anti-ABCG8 (Santa Cruz Biotechnology, sc-30111, working dilution 1:1000) and rabbit polyclonal anti-β-Actin (Cell signaling, 4967S, working dilution 1:3000). After TBST washing, membranes were incubated with secondary antibodies (LI-COR Biotechnology, donkey anti-rabbit IRDye 926-32213, 926-88073, working dilution 1:10000) for 1 hour at room temperature.

NASH-diet-induced HS = format: in vivo, mice; details: endpoint
Method: Frozen section processing was used for Oil Red O (ORO) staining. Formalin-fixed liver samples were cryoprotected in 20% sucrose at 4° C. overnight, blotted, then liquid nitrogen-snap frozen in O.C.T. Compound (Tissue-Tek, Cat #4583) and stored at −80° C. until ready for cryosectioning. Prior to sectioning, frozen blocks were brought up to about −20° C., then sectioned at 5 μm on a Cryotome SME (Thermo-Shandon, Cat #77200227). Slides were stored at −80° C. until stained. Prior to staining, liver slides were thawed to room temperature for 30 min. Slides were post-fixed in 10% Neutral Buffered Formalin for 20 min, rinsed in DDW, followed by rinsing in 60% Isopropanol before being placed in working ORO-isopropanol stain (Rowley Biochemical Inc., H-503-1B) for 5 min. Slides were then rinsed in 60% Isopropanol followed by three changes of DDW. Then, slides were nuclear counterstained in Harris Hematoxylin and mounted in Aqua-Mount (Lerner Laboratories, Cat #13800) aqueous mounting media.
Livers were rapidly removed from the euthanized mice, snap-frozen with liquid nitrogen, and kept at −80° C. Frozen liver samples (100 mg) were homogenized in PBS and centrifuged (14,000 RPM, 20 min). The supernatants were collected and analyzed for protein content using Bio-Rad Bradford assay. To assess liver lipid composition, lipids were extracted from the supernatants using hexane (≥99%, Sigma-Aldrich 32293) and isopropanol (≥99.5%, Fisher Scientific A428-4) at a 3:2 ratio (v:v), and the hexane phase was left for evaporation for 48 h. […] Liver diacylglycerols (DAG) were determined using ELISA Kit (Aviva Systems Biology, OKEH02607), according to the manufacturer's instructions. Hepatic TG, TC and DAG data were normalized to protein levels.
(§2) Mice fed CD and administered H2O served as control.

hepatic gene expression = format: in vivo, mice; details: NASH-diet, liver
Method: Total RNA from mouse liver samples was extracted using QIAGEN's RNeasy kits (QIAGEN). RNA was reverse-transcribed into cDNA with SuperScript III and random primers (Invitrogen). Specific transcript levels were assessed by a real-time PCR system (Bio-Rad) using IQ SYBR Green Supermix (Bio-Rad) and the ΔΔCt threshold cycle method of normalization. Gene expression levels were normalized to glycerldehyde 3-phosphate dehydrogenase (GAPDH).
as §2

Compound | Total gain in body weight from baseline to endpoint, lower by ([1]; glycine 0.67 mg/g, vs WD+H2O) [%] | Gross appearance of the peritoneal cavities at endpoint (yellowish coloration of the liver, enlarged visceral fat pads) ([1]; 12 weeks) | Adipocyte hypertrophy in EAT and SAT [1] | Time-dependent increase in plasma TC (baseline to endpoint) [2] | Endpoint plasma HDL [2] | Endpoint plasma LDL, reduced by [2] [%] | Endpoint plasma TC, reduced by [2] [%] | Plasma levels of glycine-containing tripeptide molecule, lower by ([2]; apoE−/− mice on WD) [%] | Plasma HDL (lipid profile) ([2]; apoE−/− mice on WD) | Plasma glycine-containing tripeptide molecule ([2]; apoE−/− mice on WD) | Plasma MCP1 levels ([2]; endpoint) | F4/80 immunostaining in liver (diet-induced NASH; endpoint, NASH-diet) | NASH-diet-induced hepatic fibrosis (Sirius Red and fibrosis scoring) (diet-induced NASH; endpoint, NASH-diet) | NASH-diet-induced hepatomegaly and yellowish coloration (diet-induced NASH; endpoint) | ABCG8 protein in liver (Western blot) (ABCG8) | HS by ORO and lipid quantification (NASH-diet-induced HS) | NFKB2, RELB and TNFα expression (qPCR) (hepatic gene expression) | TGFβ-related genes (qPCR) (hepatic gene expression) | also measured
NCC(=O)O [glycine, reference compound] | 51 | attenuated | reduced | significantly attenuated | 35% | 30 | 19 | 53 | reduction in HDL | reduced | significantly reduced | attenuated | protective effects | markedly attenuated | Overexpression | significantly attenuated | significantly downregulated |  | Endpoint body weight, lower by ([1]; oral gavage 6 times per week, 12 weeks, glycine 0.67 mg/g, vs WD+H2O): 12%
CC(C)C[C@H](N)C(=O)O [leucine] |  | yellowish coloration of the liver and enlarged visceral fat pads |  |  |  |  |  |  |  |  |  | significantly increased | but not leucine |  |  | marked HS |  | markedly upregulated | 
Gly-Gly-Leu [DT-109] | 28 | attenuated | reduced | significantly attenuated | preserved | 38 | 25 | 62 | without the reduction in HDL | reduced | significantly reduced | attenuated | protective effects | markedly attenuated | Overexpression | significantly attenuated | significantly downregulated | attenuated | Plasma TC and LDL (lipid profile) ([2]; apoE−/− mice on WD, DT-109 1 mg/g/day, endpoint): lowest TC and LDL; Adipocyte hypertrophy in EAT and SAT (diet-induced NASH; NASH-diet, 0.5 mg/g/day DT-109): decreased adipocyte hypertrophy; NAS (diet-induced NASH; endpoint, 0.5 mg/g/day DT-109): significantly decreased; Liver diacylglycerols (DAG) (NASH-diet-induced HS; 0.5 mg/g/day DT-109): significantly reduced; CCL2, CCR2 and CCR5 expression (qPCR) (hepatic gene expression; 0.5 mg/g/day DT-109): downregulated
Gly-Gly-[dL] [DT-110] |  | attenuated |  |  |  |  |  | 56 |  |  | significantly reduced |  |  |  | Overexpression |  |  |  | 
